Experiments:
[1] = system: canines having OA; experiment: Double-blind randomized trial in OA canines: owner assessment of pain and mobility (Helsinki chronic pain index, HCPI); type: in vivo, canine
Experimental: The following example evaluates the effectiveness of Alpha-GEE on both pain and mobility in a double-blind randomized trial in canines having OA. […] Together these findings provide clinical evidence of the effectiveness of treatments with Alpha-GEE in reducing the pain and restricted mobility of canines with OA.
(§1) The double-blind study was performed on a total of 30 adult canines of various breeds in five different private practice clinics. Owner consent was obtained prior to participation in the study. Each clinic was responsible for enrolling 6 canines into the study. Inclusion criteria for the study consisted of clinical assessment and radiograph confirmation of OA in at least one joint and a score of 22 or greater on the Helsinki chronic pain index (“HCPI”). Use of NSAIDs or other dietary supplements for OA were allowed, provided the current treatment regimens had not been altered for a period of at least three months. A randomized block design was used with canines assigned in a one to one ratio into either placebo (36 mg/kg/day maltose-dextran; Vireo Resources, Plattsmouth, NE) or Alpha-GEE (36 mg/kg/day; Vireo Resources, Plattsmouth, NE) treatment group. The block size was six canines, corresponding to the total number of canines enrolled from each clinic. Group assignments for each canine were blinded to both the owners and attending veterinarian until all the data was collected and reported. Both Alpha-GEE and placebo were provided in 400 mg capsules and owners were instructed on the proper method for daily oral administration of capsules to their canines and provided with the appropriate number of capsules for the duration of the 2-week study. Blood samples were taken at both the start and conclusion of the two-week trial period to monitor for changes in blood chemistry as well as potential changes in inflammatory markers as described below. Owners completed the HCPI prior to starting the study, one-week after starting the study, and a final time at the conclusion of the study at two-weeks.
Statistical evaluations of pain (HCPI), mobility (pedometer readings), and inflammatory markers were performed using ANOVA and Student Newman Keuls post-hoc comparison of means.
Owner assessment of pain and mobility in canines participating in the trial were based on the HCPI. The HCPI is a method for appraisal of pain and mobility in canines. The assessment is based on owner responses to eleven questions with a numerical answer between 0-4. Scoring on the HCPI ranges from 0 to 44, with higher numbers reflecting more pain and immobility present in the canine. Canines in both placebo and treatment group had similar initial pre-trial HCPI scores. […]

[2] = Standard blood chemistry profile of OA canines for trial period; type: in vivo, canine; details: 36 mg/kg/day oral
Experimental: as §1
In addition to the standard blood chemistry profile, blood samples taken before and at the conclusion of the two-week trial period were analyzed for PGE2 and SAA. Blood samples were collected in heparin tubes for PGE2 and in serum collection tubes for SAA. Both plasma and serum samples were centrifuged at 2000×g for 10 minutes and the plasma and serum supernatants removed and frozen at […] until analyzed for PGE2 and SAA using enzyme-linked immunosorbent assays ([…]). Of the 30 canines enrolled, 8 were excluded from the blood analysis portion of the study due to sampling/storage issues resulting in a lack of a pre- or post-trial sample. As PGE2 is rapidly metabolized in plasma, measurement of PGE2 metabolites is the most reliable method for assessing plasma levels of PGE2. Plasma samples were analyzed for PGE2 using the bicycle PGE2 competitive EIA kit purchased from Cayman Chemical (Ann Arbor, MI). The assay converts PGE2 metabolites into a stable derivative that is measured using EIA. Samples (100 μl) were analyzed in triplicate and PGE2 concentrations determined by use of standard curve. For SAA measurements, a solid phase sandwich EIA kit (Tridelta Development Ltd, Maytooth, Co Kildare, Ireland) was used as described previously.

[3] = system: serum amyloid A; experiment: Serum amyloid A (solid phase sandwich EIA) in OA canines; type: in vivo, canine; details: 36 mg/kg/day oral
Experimental: The double-blind study was performed on a total of 30 adult canines of various breeds in five different private practice clinics. Owner consent was obtained prior to participation in the study. Each clinic was responsible for enrolling 6 canines into the study. Inclusion criteria for the study consisted of clinical assessment and radiograph confirmation of OA in at least one joint and a score of 22 or greater on the Helsinki chronic pain index (“HCPI”). Use of NSAIDs or other dietary supplements for OA were allowed, provided the current treatment regimens had not been altered for a period of at least three months. […]
In addition to the standard blood chemistry profile, blood samples taken before and at the conclusion of the two-week trial period were analyzed for PGE2 and SAA. […] Both plasma and serum samples were centrifuged at 2000×g for 10 minutes and the plasma and serum supernatants removed and frozen at […] until analyzed for PGE2 and SAA using enzyme-linked immunosorbent assays (“HA”). […] Plasma samples were analyzed for PGE2 using the bicycle PGE2 competitive EIA kit purchased from Cayman Chemical (Ann Arbor, MI). The assay converts PGE2 metabolites into a stable derivative that is measured using EIA. Samples (100 μl) were analyzed in triplicate and PGE2 concentrations determined by use of standard curve. […]

[4] = molecular target: cyclooxygenase-1 (COX-1) (Homo sapiens, UniProt P23219); experiment: Inhibition of cyclooxygenase-1 activity
Sequence of cyclooxygenase-1 (COX-1) (P23219 24-599, species assumed): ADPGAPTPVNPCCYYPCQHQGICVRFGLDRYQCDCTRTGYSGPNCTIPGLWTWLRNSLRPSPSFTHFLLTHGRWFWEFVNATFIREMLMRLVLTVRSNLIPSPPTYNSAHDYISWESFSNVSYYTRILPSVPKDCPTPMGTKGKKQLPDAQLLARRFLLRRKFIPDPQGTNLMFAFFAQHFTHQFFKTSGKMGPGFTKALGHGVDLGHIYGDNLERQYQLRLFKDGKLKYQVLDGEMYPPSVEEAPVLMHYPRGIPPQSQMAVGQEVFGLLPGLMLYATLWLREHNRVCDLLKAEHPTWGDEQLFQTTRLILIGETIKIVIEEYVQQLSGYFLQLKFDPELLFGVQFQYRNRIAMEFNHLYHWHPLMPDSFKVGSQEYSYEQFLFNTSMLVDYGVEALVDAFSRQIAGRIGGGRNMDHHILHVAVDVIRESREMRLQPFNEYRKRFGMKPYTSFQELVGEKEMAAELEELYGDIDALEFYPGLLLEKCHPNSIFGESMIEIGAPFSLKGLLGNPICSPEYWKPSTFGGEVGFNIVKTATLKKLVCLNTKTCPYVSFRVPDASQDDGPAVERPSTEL

## ethyl (α-guanido-methyl) ethanoate [Alpha-GEE]
[1]; after the first week, 36 mg/kg/day oral, not statistically different from placebo
  reduction in HCPI score: 10-15%
[1]; after two weeks, 36 mg/kg/day oral, pre-trial value 28, scale 0 to 44
  HCPI score, post-trial value: 15
[1]; two weeks, p<0.001
  HCPI scores at the conclusion of the study versus placebo: significantly different
[1]; two weeks, range 2 to 20, placebo 3+4
  magnitude of change in HCPI scores during the entire trial (mean+SD): 13+7
[2]; mean ± SD after two weeks, pre-trial 1.2 ± 0.7, normal range 0.3-1.4
  Creatinine, post-trial: 1.5 ± 0.7 mg/dL
[2]; mean ± SD after two weeks, pre-trial 6.6 ± 0.4, normal range 5.4-8.2
  Total Protein, post-trial: 6.5 ± 0.4 g/dL
[2]; mean ± SD after two weeks, pre-trial 24 ± 22, normal range 7-25
  BUN, post-trial: 24 ± 19 mg/dL
[2]; mean ± SD after two weeks, pre-trial 89 ± 99, normal range 10-118
  ALT, post-trial: 53 ± 37 U/L
[2]; mean ± SD after two weeks, pre-trial 102 ± 11, normal range 80-110
  Glucose, post-trial: 101 ± 11 mg/dL
[2]; mean ± SD after two weeks, pre-trial 110 ± 104, normal range 20-150
  ALP, post-trial: 103 ± 131 U/L
[2]; two-week trial
  change in post-trial blood chemistry profiles compared to pre-trial values: no significant changes
[3]; mean ± SD after two weeks, pre-trial 673 ± 869, p < 0.05 compared to placebo (1483 ± 1653)
  Serum Amyloid A concentration, post-trial: 255 ± 221 ng/mL
[3]; two-week trial, 36 mg/kg/day
  SAA levels compared to placebo at the end of the study: significantly lower
[4]; 0.1 μM
  inhibition of COX-1 activity: about 20%
[4]; 1 μM (first of three values printed for '1 μM and 100 μM')
  inhibition of COX-1 activity: about 20%
[4]; 100 μM (third of three values printed for '1 μM and 100 μM')
  inhibition of COX-1 activity: about 15%
[4]; 0.1-100 μM, FIG. 2
  concentration dependency of inhibition of COX-1: did not show a concentration dependency
[4]; concentration not printed (second of three values printed for '1 μM and 100 μM')
  inhibition of COX-1 activity: about 15%

From patent publication US12629348B2, “Method and composition for treating osteoarthritis” (Vireo Systems, Inc., priority 2013, dated 2026)
